The AC50 is the midpoint of the concentration-response curve, whichever way the signal moves. What is called EC50 is the concentration at which the effect is half-maximal. The IC50 is the concentration at which inhibition is half-maximal.

The record followed here is ChEMBL document CHEMBL1201862, “PubChem BioAssay data set” (2004).

Active and inactive are the calls of the source. A value given as a limit tells only on which side of the number the result lay.

In assay [1] the target is Heat shock protein HSP 90-alpha (Homo sapiens, UniProt P07900). The assay is classed as functional, organism-based.
Assay [2] deals with T1, Serine/threonine-protein phosphatase (Candida dubliniensis (strain CD36 / CBS 7987 / NCPF 3949 / NRRLY-17841) (Yeast), UniProt B9W6M3).
T1 sequence (B9W6M3 whole entry): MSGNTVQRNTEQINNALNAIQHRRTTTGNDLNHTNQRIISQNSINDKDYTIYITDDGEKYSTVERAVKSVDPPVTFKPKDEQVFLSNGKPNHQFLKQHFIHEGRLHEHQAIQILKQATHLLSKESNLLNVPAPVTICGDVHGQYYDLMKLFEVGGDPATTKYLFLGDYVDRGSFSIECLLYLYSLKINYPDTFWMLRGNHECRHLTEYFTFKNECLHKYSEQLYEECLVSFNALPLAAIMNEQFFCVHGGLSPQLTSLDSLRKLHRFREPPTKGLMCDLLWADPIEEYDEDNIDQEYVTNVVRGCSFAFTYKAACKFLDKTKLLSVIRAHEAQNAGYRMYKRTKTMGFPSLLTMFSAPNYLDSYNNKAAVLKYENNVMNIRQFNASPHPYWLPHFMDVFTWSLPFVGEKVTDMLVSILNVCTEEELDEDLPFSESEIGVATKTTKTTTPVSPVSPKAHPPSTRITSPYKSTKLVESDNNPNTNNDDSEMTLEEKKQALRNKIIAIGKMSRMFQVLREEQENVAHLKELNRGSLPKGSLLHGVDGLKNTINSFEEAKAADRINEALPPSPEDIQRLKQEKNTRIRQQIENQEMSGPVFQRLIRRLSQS
The assay is described as follows: calcineurin pathway inhibitors in yeast reporter, dose response, S. cerevisiae, CDRE-lacZ, luminescence, secondary (AID 2388).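 Further: yeast reporter cells carrying a calcineurin-responsive lacZ construct stimulated with calcium chloride; luminescent beta-galactosidase reporter signal in whole cells rather than isolated phosphatase activity; potency for inhibition where a drop in reporter signal means calcineurin blockade.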 The assay is classed as functional, cell-based.

A short description of assay [3]: NIH-3T3 fibroblast cytotoxicity, dose response, cytotoxicity control, cell-based, fluorescence, Alamar Blue, secondary assay (AID 2327).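 Further: NIH-3T3 mouse fibroblasts cultured with fluconazole at 8 µg/mL.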 It counts as functional.
Assay [4] concerns the target 1-phosphatidylinositol 4,5-bisphosphate phosphodiesterase beta-3 (Homo sapiens, UniProt Q01970). In words: Fluorescence-based biochemical high throughput dose response assay to identify inhibitors of phospholipase C isozymes (PLC-B3).
Assay [5] concerns the target 1-phosphatidylinositol 4,5-bisphosphate phosphodiesterase gamma-1 (Homo sapiens, UniProt P19174). The assay is described as follows: Counterscreen for inhibitors of phospholipase C isozymes (PLC-B3): Fluorescence-based biochemical high throughput dose response assay to identify inhibitors of phospholipase C isozymes (PLC-gamma1). For orientation: A counterscreen serves to expose hits that act by an unwanted route or on another target.

Assay [6] has as its target ATP-dependent molecular chaperone HSP82 (Candida albicans (strain WO-1) (Yeast), UniProt C4YTQ8). In words: loss of DOC-induced GRE-beta-galactosidase reporter signal, dose response, Hsp90 inhibitor project, S. cerevisiae, luminescence (AID 2400).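 Further: beta-galactosidase luminescence from glucocorticoid response element reporter as proxy for Hsp90 function; inhibitor potency where signal loss means Hsp90 inhibition.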 The assay is classed as functional, cell-based.
Assay [7] in a line: C. albicans growth with fluconazole, confirmation, fluorescence, retest (AID 2467). It counts as functional, cell-based.
Assay [8] has as its target Endoplasmic reticulum aminopeptidase 1 (Homo sapiens, UniProt Q9NZ08). In words: ERAP1 aminopeptidase inhibitors, dose response, biochemical, cherry-pick, set 2, plate reader (AID 743314).
The target in assay [9] is Luciferin 4-monooxygenase (Photinus pyralis, UniProt P08659). The assay is described as follows: firefly luciferase enzyme inhibitors, dose response, biochemical, luminescence (AID 1891).
The test system of assay [10] is BJ. The assay is described as follows: cytotoxicity toward Ras-transformed BJeLR fibroblasts, dose response, cell-based, alamar blue fluorescence, cherrypicked samples (AID 2631).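 Further: confirmatory dose-response assay in RAS-dependent BJ fibroblasts engineered with TERT, LT and ST, with cytotoxicity read by fluorescence.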 The assay is classed as functional. As to conditions: Homo sapiens.
Assay [11] has as its system INS1. The assay is described as follows: beta cell apoptosis inhibitors, cytokine rescue, dose response, luminescence, retest (AID 449756).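 Further: cell death triggered by IL-1 beta plus TNF-alpha plus IFN-gamma mixture; protective hits raise ATP signal compared with cytokine alone wells.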 The assay is classed as functional, cell-based. Conditions: Rattus norvegicus.
Assay [12] can be described thus: HepG2 cell cytotoxicity, dose response, cytotoxicity control, ATP luminescence, cherry-pick, activator set 2 (AID 1053143). It counts as functional, cell-based.
Assay [13] concerns BJ. In words: cells. The assay is classed as functional, cell-based, Homo sapiens. As to conditions: Homo sapiens, BJ.
Assay [14] in a line: cytotoxicity toward DRD oncogenic fibroblasts, dose response, cell-based, non-viral oncogenic, luminescence (AID 1934). The assay is classed as functional. As to conditions: Homo sapiens.
The test system of assay [15] is BJ. The assay is described as follows: cytotoxicity toward BJ-TERT-LT-ST fibroblasts, dose response, cell-based, RAS-independent, luminescence (AID 1935).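 Further: BJ fibroblasts immortalized with TERT plus LT and ST oncogenes.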 The assay is classed as functional. As to conditions: Homo sapiens.
In assay [16] the test system is BJ. The assay is described as follows: cytotoxicity toward BJ-TERT fibroblasts, dose response, cell-based, RAS-independent, luminescence (AID 1933). It counts as functional. Conditions: Homo sapiens.
Assay [17] can be described thus: Luminescence Cell-Based Dose Confirmation HTS to Identify Inhibitors of Platelet Dense Granule Release. [Related pubchem assays: 1663 (Primary HTS), 1678 (Summary of Project)]. The assay is classed as functional.
Assay [18] has as its target Paired box protein Pax-8 (Homo sapiens, UniProt Q06710). In words: inhibitors of PAX8-driven TPO luciferase reporter, dose response, RMG-I cells, cherry-pick (AID 687027).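 Further: luciferase reporter driven by Pax8 target thyroperoxidase promoter measured by SteadyGlo luminescence.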 It counts as functional, cell-based. For orientation: Reporter assays use an easily measured gene product as a stand-in for the process of interest.
A short description of assay [19]: miR-122 activators in hepatoma reporter cells, dose response, cell-based, Huh7 psiCHECK-miR122, Renilla luciferase, cherry-picked (AID 651956).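 Further: huh7 hepatoma cells stably carrying a psiCHECK-2 miR-122 sensor plasmid; renilla luciferase signal reporting endogenous miR-122 activity after 48 h compound exposure.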 The assay is classed as functional.
A short description of assay [20]: IGROV1 ovarian cancer cell cytotoxicity, dose response, PAX8 inhibitor project, plate reader, dry powder samples (AID 743043). It counts as functional, cell-based. As to conditions: IGROV-1.
Assay [21] in a line: HEK293T cytotoxicity, dose response, cytotoxicity control for miR-122 modulator project, cell-based, inhibitor set, cherry-pick, set 2 (AID 720697). The assay is classed as functional.
Assay [22] can be described thus: cytotoxicity in OVCAR8 ovarian cancer cells, dose response, PAX8 project, cell-based, plate reader, dry powder samples (AID 743197). It counts as functional. As to conditions: OVCAR-8.
Assay [23] is described as follows: HEK293T cytotoxicity, dose response, cytotoxicity control for miR-122 modulator project, cell-based, activator set, cherry-pick (AID 720690).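 Further: HEK293T human cells scored for general mammalian cytotoxicity.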 It counts as functional.
The nature of assay [24]: A Cell-Based Confirmatory Screen for Compounds that Inhibit VEEV, TC-83 (8). The assay is classed as functional.
A short description of assay [25]: A Cell-Based Confirmatory Screen for Compounds that Inhibit VEEV, TC-83 (6). The assay is classed as functional.
In assay [26] the target is Metabotropic glutamate receptor 3 (Rattus norvegicus, UniProt P31422). In words: mGlu3 negative allosteric modulator potency, dose response, HEK/GIRK cells, thallium flux, rat (AID 651839). It counts as functional.
Assay [27] deals with T2, High affinity choline transporter 1 (Homo sapiens, UniProt Q9GZV3).
T2 sequence (Q9GZV3 whole entry): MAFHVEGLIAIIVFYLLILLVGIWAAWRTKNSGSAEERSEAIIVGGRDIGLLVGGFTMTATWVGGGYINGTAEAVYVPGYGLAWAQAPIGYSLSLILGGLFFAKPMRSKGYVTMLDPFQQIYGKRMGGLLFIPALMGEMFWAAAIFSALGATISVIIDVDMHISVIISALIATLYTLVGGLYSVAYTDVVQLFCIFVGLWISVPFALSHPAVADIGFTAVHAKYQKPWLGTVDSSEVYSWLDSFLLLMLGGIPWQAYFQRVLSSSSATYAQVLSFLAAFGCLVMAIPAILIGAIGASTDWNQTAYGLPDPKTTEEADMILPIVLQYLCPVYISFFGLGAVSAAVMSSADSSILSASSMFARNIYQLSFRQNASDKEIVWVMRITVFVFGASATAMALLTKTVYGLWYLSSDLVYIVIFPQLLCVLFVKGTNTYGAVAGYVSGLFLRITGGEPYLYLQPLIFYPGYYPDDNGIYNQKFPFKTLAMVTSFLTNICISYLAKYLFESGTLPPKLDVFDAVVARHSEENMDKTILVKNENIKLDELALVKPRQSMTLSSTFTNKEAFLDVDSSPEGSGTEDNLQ
The assay is described as follows: CHT choline uptake inhibitors, dose response, cell-based, HEK-293 hCHT, [3H]-choline uptake (AID 652177). The assay is classed as functional.

Chain of Metabotropic glutamate receptor 3 (P31422 whole entry): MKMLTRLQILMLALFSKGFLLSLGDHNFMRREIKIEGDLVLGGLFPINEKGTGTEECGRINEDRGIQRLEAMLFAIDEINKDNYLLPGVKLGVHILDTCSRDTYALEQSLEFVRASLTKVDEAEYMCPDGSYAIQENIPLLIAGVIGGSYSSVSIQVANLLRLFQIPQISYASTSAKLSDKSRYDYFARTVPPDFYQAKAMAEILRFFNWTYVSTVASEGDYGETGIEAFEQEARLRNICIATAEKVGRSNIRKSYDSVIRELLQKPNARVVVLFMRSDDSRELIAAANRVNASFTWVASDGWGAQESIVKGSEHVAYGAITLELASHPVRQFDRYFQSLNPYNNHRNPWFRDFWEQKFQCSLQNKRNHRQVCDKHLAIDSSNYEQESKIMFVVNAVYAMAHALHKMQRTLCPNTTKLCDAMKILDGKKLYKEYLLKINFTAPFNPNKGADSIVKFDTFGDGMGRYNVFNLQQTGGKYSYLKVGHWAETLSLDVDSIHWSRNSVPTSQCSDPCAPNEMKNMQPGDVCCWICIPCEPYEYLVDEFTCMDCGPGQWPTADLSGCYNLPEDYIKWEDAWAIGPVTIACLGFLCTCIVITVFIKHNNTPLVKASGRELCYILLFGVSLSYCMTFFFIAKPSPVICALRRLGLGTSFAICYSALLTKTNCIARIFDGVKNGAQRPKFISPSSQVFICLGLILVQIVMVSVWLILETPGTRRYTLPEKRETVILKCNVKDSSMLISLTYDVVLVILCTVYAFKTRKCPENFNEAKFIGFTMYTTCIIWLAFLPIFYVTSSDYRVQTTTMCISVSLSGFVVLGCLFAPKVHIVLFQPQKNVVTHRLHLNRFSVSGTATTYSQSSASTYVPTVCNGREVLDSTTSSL
Chain of ATP-dependent molecular chaperone HSP82 (C4YTQ8 whole entry): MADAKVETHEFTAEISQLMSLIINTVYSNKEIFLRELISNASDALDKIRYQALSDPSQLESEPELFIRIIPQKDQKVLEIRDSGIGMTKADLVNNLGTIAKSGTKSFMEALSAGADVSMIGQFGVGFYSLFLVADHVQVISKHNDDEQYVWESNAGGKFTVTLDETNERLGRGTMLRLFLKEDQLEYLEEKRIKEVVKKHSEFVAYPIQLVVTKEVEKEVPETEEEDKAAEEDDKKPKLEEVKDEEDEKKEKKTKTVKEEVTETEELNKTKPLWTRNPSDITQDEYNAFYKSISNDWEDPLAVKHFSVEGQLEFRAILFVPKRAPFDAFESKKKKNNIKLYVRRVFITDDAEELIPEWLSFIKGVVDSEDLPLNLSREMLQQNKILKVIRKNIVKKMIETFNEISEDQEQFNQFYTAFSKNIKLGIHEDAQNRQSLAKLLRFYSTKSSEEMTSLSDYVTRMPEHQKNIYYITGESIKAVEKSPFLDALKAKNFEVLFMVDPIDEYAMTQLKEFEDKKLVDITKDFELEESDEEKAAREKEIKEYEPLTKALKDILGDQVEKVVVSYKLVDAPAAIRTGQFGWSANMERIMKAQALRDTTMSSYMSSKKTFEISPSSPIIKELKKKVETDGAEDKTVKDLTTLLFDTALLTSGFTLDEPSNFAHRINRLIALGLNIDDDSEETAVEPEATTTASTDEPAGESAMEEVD
Chain of Paired box protein Pax-8 (Q06710 whole entry): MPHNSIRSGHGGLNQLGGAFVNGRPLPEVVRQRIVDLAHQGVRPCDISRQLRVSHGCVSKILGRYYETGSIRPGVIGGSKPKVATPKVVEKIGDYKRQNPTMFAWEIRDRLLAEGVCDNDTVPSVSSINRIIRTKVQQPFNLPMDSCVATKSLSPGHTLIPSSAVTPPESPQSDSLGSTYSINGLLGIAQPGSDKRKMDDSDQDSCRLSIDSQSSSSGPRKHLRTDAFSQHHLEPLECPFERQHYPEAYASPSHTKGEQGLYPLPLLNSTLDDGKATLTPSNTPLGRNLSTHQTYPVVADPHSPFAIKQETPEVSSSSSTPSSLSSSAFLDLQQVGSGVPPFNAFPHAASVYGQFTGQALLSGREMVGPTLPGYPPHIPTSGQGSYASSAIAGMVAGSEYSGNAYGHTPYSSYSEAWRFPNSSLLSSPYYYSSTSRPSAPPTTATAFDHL
Chain of Endoplasmic reticulum aminopeptidase 1 (Q9NZ08 whole entry): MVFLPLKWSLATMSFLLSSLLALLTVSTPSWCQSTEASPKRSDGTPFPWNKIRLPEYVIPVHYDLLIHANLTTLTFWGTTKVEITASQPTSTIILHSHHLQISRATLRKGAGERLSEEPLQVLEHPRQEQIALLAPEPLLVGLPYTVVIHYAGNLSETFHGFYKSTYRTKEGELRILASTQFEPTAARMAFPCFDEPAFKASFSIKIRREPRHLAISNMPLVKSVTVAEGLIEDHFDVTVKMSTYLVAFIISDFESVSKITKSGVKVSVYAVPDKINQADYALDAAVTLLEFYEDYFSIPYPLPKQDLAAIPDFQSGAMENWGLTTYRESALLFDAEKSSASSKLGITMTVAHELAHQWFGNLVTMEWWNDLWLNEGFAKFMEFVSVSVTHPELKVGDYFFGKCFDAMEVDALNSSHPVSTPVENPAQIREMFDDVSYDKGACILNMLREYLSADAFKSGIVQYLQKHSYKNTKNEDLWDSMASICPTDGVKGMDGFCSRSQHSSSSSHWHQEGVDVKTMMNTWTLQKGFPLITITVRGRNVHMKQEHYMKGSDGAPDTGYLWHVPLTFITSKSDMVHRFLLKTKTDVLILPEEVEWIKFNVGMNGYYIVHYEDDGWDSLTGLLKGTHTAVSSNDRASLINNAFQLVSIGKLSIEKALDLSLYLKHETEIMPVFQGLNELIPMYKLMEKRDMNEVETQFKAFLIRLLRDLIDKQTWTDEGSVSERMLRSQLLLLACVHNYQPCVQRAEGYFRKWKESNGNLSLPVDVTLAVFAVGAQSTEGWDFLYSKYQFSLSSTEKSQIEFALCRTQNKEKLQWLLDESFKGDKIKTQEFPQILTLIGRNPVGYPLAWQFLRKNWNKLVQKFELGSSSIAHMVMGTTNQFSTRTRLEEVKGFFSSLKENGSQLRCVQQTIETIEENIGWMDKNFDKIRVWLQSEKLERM
Chain of Luciferin 4-monooxygenase (P08659 whole entry): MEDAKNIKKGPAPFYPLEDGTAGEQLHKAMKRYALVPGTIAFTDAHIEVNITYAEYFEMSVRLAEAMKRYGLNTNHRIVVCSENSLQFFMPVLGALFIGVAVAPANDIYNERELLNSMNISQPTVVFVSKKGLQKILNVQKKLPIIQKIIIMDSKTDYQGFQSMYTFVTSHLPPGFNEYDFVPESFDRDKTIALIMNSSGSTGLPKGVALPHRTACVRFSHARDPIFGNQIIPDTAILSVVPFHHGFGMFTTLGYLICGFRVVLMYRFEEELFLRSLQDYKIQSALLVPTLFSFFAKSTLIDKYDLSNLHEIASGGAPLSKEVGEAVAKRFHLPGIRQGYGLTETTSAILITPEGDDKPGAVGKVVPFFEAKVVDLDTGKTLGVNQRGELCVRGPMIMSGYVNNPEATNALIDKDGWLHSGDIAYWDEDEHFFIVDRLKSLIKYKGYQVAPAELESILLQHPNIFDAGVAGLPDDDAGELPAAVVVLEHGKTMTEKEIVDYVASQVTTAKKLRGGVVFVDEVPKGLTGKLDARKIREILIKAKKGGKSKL
Chain of 1-phosphatidylinositol 4,5-bisphosphate phosphodiesterase gamma-1 (P19174 whole entry): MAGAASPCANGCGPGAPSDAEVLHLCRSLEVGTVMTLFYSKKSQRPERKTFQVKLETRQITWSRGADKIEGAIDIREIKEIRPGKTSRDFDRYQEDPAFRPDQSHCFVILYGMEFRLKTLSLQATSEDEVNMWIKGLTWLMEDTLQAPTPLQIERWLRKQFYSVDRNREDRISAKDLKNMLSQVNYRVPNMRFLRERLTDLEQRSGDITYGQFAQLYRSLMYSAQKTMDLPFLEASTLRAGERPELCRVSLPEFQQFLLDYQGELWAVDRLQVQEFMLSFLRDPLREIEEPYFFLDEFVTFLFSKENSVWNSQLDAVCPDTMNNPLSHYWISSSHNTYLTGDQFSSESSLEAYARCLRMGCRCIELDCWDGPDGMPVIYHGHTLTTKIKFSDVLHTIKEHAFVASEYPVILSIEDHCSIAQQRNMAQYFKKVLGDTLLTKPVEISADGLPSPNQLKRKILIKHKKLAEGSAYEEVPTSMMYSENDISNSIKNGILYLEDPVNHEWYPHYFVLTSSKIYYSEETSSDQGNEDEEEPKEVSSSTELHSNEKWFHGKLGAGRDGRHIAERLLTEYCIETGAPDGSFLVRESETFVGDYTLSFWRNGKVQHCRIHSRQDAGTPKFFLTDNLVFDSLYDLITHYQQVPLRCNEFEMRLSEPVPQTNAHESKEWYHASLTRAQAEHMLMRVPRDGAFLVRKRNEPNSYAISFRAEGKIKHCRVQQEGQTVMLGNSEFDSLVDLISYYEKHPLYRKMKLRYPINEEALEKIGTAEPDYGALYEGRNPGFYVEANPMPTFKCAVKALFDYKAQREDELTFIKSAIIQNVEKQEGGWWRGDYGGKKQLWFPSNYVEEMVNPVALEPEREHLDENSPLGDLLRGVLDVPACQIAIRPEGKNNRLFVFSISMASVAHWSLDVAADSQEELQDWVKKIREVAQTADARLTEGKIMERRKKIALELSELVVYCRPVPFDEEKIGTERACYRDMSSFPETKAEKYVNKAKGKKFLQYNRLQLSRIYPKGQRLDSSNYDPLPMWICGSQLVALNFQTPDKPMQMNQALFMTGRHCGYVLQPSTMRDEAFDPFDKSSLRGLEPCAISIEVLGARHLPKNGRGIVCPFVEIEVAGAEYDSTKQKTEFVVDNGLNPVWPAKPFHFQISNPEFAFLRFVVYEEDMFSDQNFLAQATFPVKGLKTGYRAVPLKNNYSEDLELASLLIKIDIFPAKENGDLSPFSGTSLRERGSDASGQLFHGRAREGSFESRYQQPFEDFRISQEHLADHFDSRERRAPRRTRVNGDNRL

`N=C(Cc1ccc(Cl)c(Cl)c1)NOC(=O)c1cccs1`: the half-maximal activity concentration (AC50) in assay [1] is 3.01 µM (active). The EC50 in assay [2] was > 180 µM (inactive); in assay [3] it was > 160 µM (inconclusive); in assay [6], 11.6 µM (active); in assay [7], 0.376 µM (active). Besides, the IC50 in assay [4] and in [5] was > 122 µM (inactive) throughout.

With `Cc1c(C)c2ccc(O)c(CN3CCCC3)c2oc1=O`, the AC50 in assay [8] is 7.31 µM (active).

On to `Cc1occc1C(=O)N/N=C/c1ccc2c(c1)OCO2`, for which the EC50 in [9] was 1.4 µM (active); in [10] it was > 133 µM (inactive); in assay [13], 7.36 µM (active); in [14] it was 5.68 µM (active); in assay [15], 16.8 µM (active); in assay [16] it was 8.43 µM (active). Besides, the EC50 in [17] is 1.77 µM (active). Besides, the concentration at half-maximal activity (AC50) in assay [11] was 4.17 µM (active); in assay [12], 8.12 µM (active).

With `COc1ccc(CN(C)C[C@H]2OCCCC[C@H](C)Oc3ccc(NC(=O)Nc4ccc(C(F)(F)F)cc4)cc3C(=O)N([C@@H](C)CO)C[C@@H]2C)cc1`, the AC50 in assay [18] was 8.38 µM (active); in assay [19] it was 6.4 µM (active); in [20], 53.8 µM (active); in assay [21], 11.3 µM (active); in assay [22], > 70 µM (inactive); in assay [23] it was 18.3 µM (active).

On to `COc1ccc(-n2c(CN3CCNCC3)nc3ccc([N+](=O)[O-])cc3c2=O)cc1`, for which the 50% inhibitory concentration (IC50) in assay [24] is < 0.218 µM (active); in assay [25] it was < 0.22 µM (active).

Take `COc1ccc(COc2ccc(C(=O)N3CCC[C@@H](CO)C3)cc2)cc1`: in assay [26], the half-maximal inhibitory concentration (IC50) is 6.84 µM (active).

As to `COc1ccc(C(=O)NCc2cc(C(C)C)no2)cc1OC1CCCN(C)C1` (configuration not stated), in assay [27], the IC50 is 1.25 µM (active).
